Assay results: ChEMBL document CHEMBL1201862, “PubChem BioAssay data set” (2004)
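These data come from cells grown in 96-well plates and exposed to compound for 48 hours at five concentrations. The concentration for 50% growth inhibition is given as GI50.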 Calls of active or inactive are those of the source. Cut-off read from the data, not from the text of the source: active = GI50 up to about 1.1 µM and inactive = higher.

Legend:
Assay in all cases: NCI tumour cell line growth inhibition, 48 h
[1] = tested on: A498
[2] = tested on: A549
[3] = tested on: COLO 205
[4] = tested on: EKVX
[5] = tested on: HCC 2998
[6] = tested on: HOP-62
[7] = tested on: Hs-578T
[8] = tested on: IGROV-1
[9] = tested on: Malme-3M
[10] = tested on: OVCAR-4
[11] = tested on: PC-3
[12] = tested on: SF-268
[13] = tested on: SNB-19
[14] = tested on: T47D
[15] = tested on: U-251
[16] = tested on: UACC-257
[17] = tested on: HCT-15
[18] = tested on: RPMI-8226
[19] = tested on: SK-MEL-2

Row | Compound | GI50 [1] | GI50 [2] | GI50 [3] | GI50 [4] | GI50 [5] | GI50 [6] | GI50 [7] | GI50 [8] | GI50 [9] | GI50 [10] | GI50 [11] | GI50 [12] | GI50 [13] | GI50 [14] | GI50 [15] | GI50 [16] | GI50 [17] [µM] | GI50 [18] | GI50 [19]
1 | C[C@]12CCC(=O)C=C1CC[C@@H]1C2CC[C@]2(C)Nc3c(ncn3-c3ccc(F)cc3)CC12 (stereo partly specified) | 22.3 µM (inactive) | 21.9 µM (inactive) | 15.7 µM (inactive) | 27.3 µM (inactive) | 20.2 µM (inactive) | 37.8 µM (inactive) | 16.3 µM (inactive) | 52.4 µM (inactive) | 18.9 µM (inactive) | 28.2 µM (inactive) | 12 µM (inactive) | 19.1 µM (inactive) | 49.2 µM (inactive) | 18.3 µM (inactive) | 20.9 µM (inactive) | 17.8 µM (inactive) |  |  | 
2 | O=c1c(C(c2cnc3ccccc3c2)c2c(O)oc3ccccc3c2=O)c(O)oc2ccccc12 | 92.5 µM (inactive) |  | 60.7 µM (inactive) | 99.3 µM (inactive) |  | 46.5 µM (inactive) | 22.4 µM (inactive) | > 100 µM (inactive) | 35.2 µM (inactive) | 33.7 µM (inactive) | 48.5 µM (inactive) | 23.8 µM (inactive) | 23.2 µM (inactive) | > 100 µM (inactive) | 29 µM (inactive) | 37.3 µM (inactive) | 44.6 | 29 µM (inactive) | 47.2 µM (inactive)
3 | CN(c1ccccc1Cl)S(=O)(=O)c1ccccc1[N+](=O)[O-] |  | 37.2 µM (inactive) | 34.2 µM (inactive) | 39.2 µM (inactive) | 34.7 µM (inactive) | 41.6 µM (inactive) | > 100 µM (inactive) | 70.1 µM (inactive) | 79.6 µM (inactive) | > 100 µM (inactive) | 24.7 µM (inactive) | 55.8 µM (inactive) | 46.9 µM (inactive) | 90.6 µM (inactive) | 40.6 µM (inactive) | 45.1 µM (inactive) | 48.9 | 24.8 µM (inactive) | 96.6 µM (inactive)
4 | COc1cc(O)c2c(c1)OCC(Cc1ccc(O)cc1)C2=O (stereo unspecified) | 36.1 µM (inactive) | > 100 µM (inactive) | > 100 µM (inactive) |  |  | > 100 µM (inactive) | 45.7 µM (inactive) | > 100 µM (inactive) | > 100 µM (inactive) | 86.3 µM (inactive) | > 100 µM (inactive) | 80.5 µM (inactive) | > 100 µM (inactive) | 45.4 µM (inactive) | > 100 µM (inactive) | > 100 µM (inactive) | 94.8 | 65.5 µM (inactive) | > 100 µM (inactive)
5 | CC1(C)OC(=O)C(Cc2ccccc2)(Cc2ccccc2)C(=O)O1 |  | > 100 µM (inactive) | > 100 µM (inactive) | > 100 µM (inactive) | > 100 µM (inactive) | > 100 µM (inactive) | > 100 µM (inactive) | > 100 µM (inactive) | > 100 µM (inactive) | > 100 µM (inactive) | > 100 µM (inactive) | > 100 µM (inactive) | > 10 µM (inactive) | > 100 µM (inactive) | > 100 µM (inactive) | > 100 µM (inactive) | > 100 |  | > 100 µM (inactive)
6 | OC1OC(c2ccco2)C(F)(F)C(F)(F)C1(F)F (stereo unspecified) | > 100 µM (inactive) | 74 µM (inactive) | 82.6 µM (inactive) | 81.7 µM (inactive) |  | > 100 µM (inactive) | 18.2 µM (inactive) | > 100 µM (inactive) | 51.8 µM (inactive) | 43.2 µM (inactive) | > 100 µM (inactive) | 71.3 µM (inactive) | > 100 µM (inactive) | 46.2 µM (inactive) | > 100 µM (inactive) | > 100 µM (inactive) | 90.4 | 39.8 µM (inactive) | > 100 µM (inactive)
7 | CC1(C)CC(=O)C(Cc2ccccc2)(Cc2ccccc2)C(=O)C1 |  | > 100 µM (inactive) | > 100 µM (inactive) | > 100 µM (inactive) | > 100 µM (inactive) | > 100 µM (inactive) | 29.2 µM (inactive) | > 100 µM (inactive) | > 100 µM (inactive) | > 100 µM (inactive) | > 100 µM (inactive) | > 100 µM (inactive) | > 100 µM (inactive) | > 100 µM (inactive) | > 100 µM (inactive) | > 100 µM (inactive) | > 100 |  | > 100 µM (inactive)
8 | Cc1c(C(=O)O)n2c(C)nnc2c2ccccc12 | > 100 µM (inactive) | > 100 µM (inactive) | > 100 µM (inactive) | > 100 µM (inactive) | > 100 µM (inactive) | > 100 µM (inactive) | > 100 µM (inactive) | > 100 µM (inactive) |  | > 100 µM (inactive) | > 100 µM (inactive) | > 100 µM (inactive) |  | > 100 µM (inactive) | > 100 µM (inactive) | > 100 µM (inactive) | > 100 |  | > 100 µM (inactive)
9 | CCN1/C(=C/C#C/C(C)=C\c2sc3ccccc3[n+]2CC)Sc2ccccc21 |  | 2.92 µM (inactive) | 1.27 µM (inactive) | 1.33 µM (inactive) | 3.01 µM (inactive) | 5.37 µM (inactive) | 2.98 µM (inactive) | 1.75 µM (inactive) | 1.11 µM (active) | 7.33 µM (inactive) | 1.82 µM (inactive) | 2.86 µM (inactive) | 1.91 µM (inactive) | 5.13 µM (inactive) | 0.948 µM (active) | 1.32 µM (inactive) | 3.69 | 0.222 µM (active) | 2.44 µM (inactive)
10 | Cc1nc(C)c(Cc2ccccc2)o1 | > 100 µM (inactive) | > 100 µM (inactive) | > 100 µM (inactive) | > 100 µM (inactive) | > 100 µM (inactive) | > 100 µM (inactive) | > 100 µM (inactive) | > 100 µM (inactive) | > 100 µM (inactive) | > 100 µM (inactive) | > 100 µM (inactive) | > 100 µM (inactive) | > 100 µM (inactive) | > 100 µM (inactive) | > 100 µM (inactive) | > 100 µM (inactive) | > 100 |  | 
11 | Cc1nc(O)nc(N(CCO)/N=C/c2ccc(Cl)cc2)c1C(=O)Nc1ccc(Cl)cc1 | > 100 µM (inactive) | > 100 µM (inactive) | > 100 µM (inactive) | > 100 µM (inactive) | > 100 µM (inactive) | 59.7 µM (inactive) | 32.5 µM (inactive) | > 100 µM (inactive) | 26.1 µM (inactive) | > 100 µM (inactive) | > 100 µM (inactive) | 89.7 µM (inactive) | 83.9 µM (inactive) | 98.4 µM (inactive) | 21.3 µM (inactive) | > 100 µM (inactive) | > 100 |  | 34.4 µM (inactive)
12 | Cc1cc(OCc2nc(N)nc(N)c2-c2ccc(Cl)c(Cl)c2)ccc1[N+](=O)[O-] | 0.103 µM (active) | 0.0352 µM (active) | 0.705 µM (active) | 0.953 µM (active) |  | 0.379 µM (active) | 12.2 µM (inactive) | 0.0723 µM (active) | 2.59 µM (inactive) | 2.19 µM (inactive) | 0.467 µM (active) | 0.771 µM (active) | 0.743 µM (active) | 2.44 µM (inactive) | 0.0889 µM (active) | 0.0451 µM (active) | 0.0893 | 1.46 µM (inactive) | 1.41 µM (inactive)
13 | N/C(=N\O)N/N=C/c1cc(I)cc(I)c1O | > 100 µM (inactive) | 49.3 µM (inactive) | 27 µM (inactive) | 58.3 µM (inactive) | 61.9 µM (inactive) | 42.3 µM (inactive) | > 100 µM (inactive) | 30.8 µM (inactive) | 19.3 µM (inactive) | 27.6 µM (inactive) | 37.2 µM (inactive) | 24.1 µM (inactive) | 49.5 µM (inactive) | 48.1 µM (inactive) | 34.8 µM (inactive) | 52.2 µM (inactive) | 5.37 |  | 54.8 µM (inactive)
14 | [BH3-][P+]1(CC[P@@+]([BH3-])(c2ccccc2)c2ccccc2OC)[C@@H](C)[C@@H](O)[C@H](O)[C@@H]1C (stereo partly specified) | 18 µM (inactive) | 14.1 µM (inactive) | 17.8 µM (inactive) | 12.4 µM (inactive) |  | 16.9 µM (inactive) | 10.3 µM (inactive) | 17.3 µM (inactive) | 11.2 µM (inactive) | 16.8 µM (inactive) | 15 µM (inactive) | 17.2 µM (inactive) | 17 µM (inactive) | 15.9 µM (inactive) | 16.9 µM (inactive) | 4.19 µM (inactive) | 17.5 | 23.4 µM (inactive) | 15.7 µM (inactive)
15 | CCOC(=O)C1c2[nH]c3ccccc3c2CCN1C(=O)c1ccco1 (stereo unspecified) | 9.73 µM (inactive) | > 10 µM (inactive) | > 10 µM (inactive) | > 10 µM (inactive) | > 10 µM (inactive) | > 10 µM (inactive) | > 10 µM (inactive) | > 10 µM (inactive) | > 10 µM (inactive) | > 10 µM (inactive) | > 10 µM (inactive) | > 10 µM (inactive) | > 10 µM (inactive) | > 10 µM (inactive) | > 10 µM (inactive) | > 10 µM (inactive) | > 10 | > 10 µM (inactive) | 
16 | Cc1c2c3ccccc3nc-2n(C)c2ccccc12 |  | 1.57 µM (inactive) |  | 2.43 µM (inactive) | 2.64 µM (inactive) | 3.78 µM (inactive) | 4.8 µM (inactive) | 2.32 µM (inactive) | 2.08 µM (inactive) |  | 2.17 µM (inactive) | 3.83 µM (inactive) | 5.35 µM (inactive) | 3.08 µM (inactive) | 2.54 µM (inactive) | 2.11 µM (inactive) | 0.548 | 2.7 µM (inactive) | 
